The values that follow come from paper PMC5750218, “Protein-inspired antibiotics active against vancomycin- and daptomycin-resistant bacteria” (Nature Communications, 2018).

Series [1] relates to Methicillin-resistant S. aureus ATCC 43300. The series can be described thus: microbe, parasite or virus in culture. The conditions noted are these: for MIC: Staphylococcus aureus. Put shortly: (§1)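 Growth inhibition measured by broth microdilution (MHB, 37 °C, 24 h incubation). MIC defined visually as the lowest inhibitory concentration.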
The test system of series [2] is Vancomycin-resistant S. aureus NARSA VRS4. Briefly: microbe, parasite or virus in culture. The conditions noted are these: for MIC: Staphylococcus aureus, VRSA, read-out: MIC VRSA. The class given is cell-based, Staphylococcus aureus.
Series [3] relates to Multi-drug-resistant S. pneumoniae ATCC 700677. Briefly: microbe, parasite or virus in culture. The conditions noted are these: for MIC: Streptococcus pneumoniae, ATCC700677, read-out: MIC MDR S.P. The essentials: as §1
Series [4] has as its system Vancomycin-intermediate S. aureus NRS1. The series can be described thus: microbe, parasite or virus in culture. The conditions noted are these: for MIC: Staphylococcus aureus, NRS1 / VISA, read-out: MIC VISA. The essentials:
as §1

Series [5] deals with Vancomycin-resistant (VanA) Enterococcus faecium ATCC 51559. The series can be described thus: microbe, parasite or virus in culture. The conditions noted are these: for MIC: Enterococcus faecium, ATCC51559 / VRE, read-out: MIC VRE. The essentials:
as §1

Series [6] deals with Methicillin-sensitive S. aureus ATCC 29213. The series can be described thus: microbe, parasite or virus in culture. The class given is cell-based, Staphylococcus aureus. The conditions noted are these: for MIC: Staphylococcus aureus, ATCC 29213 / MSSA. On the procedure: Antimicrobial activity of compounds was tested against a number of bacterial strains by broth microdilution (BMD) assay with MIC determination, including S. aureus (MSSA ATCC® 29213™, MRSA ATCC® 43300™, VISA NARSA NRS1, VISA NARSA NRS4), Streptococcus pneumoniae (MDR ATCC® 700677™) and Enterococcus faecium (MDR VanA ATCC® 51559™). ATCC strains were sourced from the American Type Culture Collection and NRS strains from NARSA (Network on Antimicrobial Resistance in S. aureus) via BEI Resources (www.beiresources.org). All compounds were prepared to 160 µg mL^−1 solution in water from a stock solution of 1 mM concentration.
[…] […] Standards ranged from 64 to 0.03 µg mL^−1 and compounds from 8 to 0.003 µg mL^−1 with final assay volumes of 100 µL per well. Gram-positive bacteria were cultured in Mueller Hinton broth (MHB) (Bactolaboratories, Cat. no. 211443) at 37 °C overnight. A sample of each culture was then diluted 40-fold in fresh MHB and incubated at 37 °C for 2–3 h. The resultant mid-log phase cultures were added to the compound-containing 96-well plates to give a final cell density of 5 × 10^5 colony forming unit (CFU) mL^−1. All the plates were covered and incubated at 37 °C for 24 h. MICs were the lowest concentration showing no visible growth.

A short description of series [7]: Cytotoxicity MTT assay. The class given is cell-based, human. The conditions noted are these: human. The essentials:
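HepG2 and HEK293 cells, 1.5 × 10^4 per well in DMEM with 1% FBS, were allowed to attach for 24 h, then exposed 24 h at 37 °C to compounds at 100 µM to 0.046 µM in threefold steps. MTT (0.4 mg mL^−1) was added for 2 h, and formazan in DMSO was read at 570 nm. Viability is given as percent of control, corrected for a positive control.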

The subject of series [8] is S. aureus ATCC 43300. The series can be described thus: Membrane permeability assay (propidium iodide). The class given is cell-based, Staphylococcus aureus. The following applies: for Fold higher propidium iodide fluorescence than oritavancin: 16 µg mL^−1, MRSA ATCC 43300. On the procedure:
To evaluate the ability of the compounds to disrupt the cytoplasmic membrane integrity, the membrane impermeable fluorescent DNA intercalating dye propidium iodide (PI) was used. Early exponential phase cells were pelleted and washed twice in 10 mM HEPES buffer (pH 7.4) containing 50 µg mL^−1 of CaCl2 and 5 mM glucose, and then re-suspended in the same buffer (4 × 10^8 CFU mL^−1). Cell suspension was added to a 384-well black walled polystyrene plate (Corning, CLS3573) containing compounds, giving a final concentration of 16 µg mL^−1. After 1 h incubation at 37 °C, 5 µg mL^−1 of PI was added and fluorescence was monitored for 90 min using a Tecan Infinite® m1000 Pro Multi-mode reader (excitation/emission 535/620 nm). Data were corrected by subtraction of fluorescence signal arising from untreated cells in the presence of PI. […] Each sample was tested in quadruplicate and independent assays were performed twice showing similar results. Data was analysed and presented using Prism software.

Values after ≈ are worked out from the molar mass of the structure shown. Like-named read-outs stand apart in the source and are kept apart here.

On to `CNC(=O)[C@H](CCCCNC(=O)[C@H]1NC(=O)[C@H]2NC(=O)[C@H](NC(=O)[C@@H]3NC(=O)[C@H](CC(N)=O)NC(=O)[C@H](NC(=O)[C@@H](CC(C)C)NC)[C@H](O)c4ccc(c(Cl)c4)Oc4cc3cc(c4O[C@@H]3O[C@H](CO)[C@@H](O)[C@H](O)[C@H]3O[C@H]3C[C@](C)(N)[C@H](O)[C@H](C)O3)Oc3ccc(cc3Cl)[C@H]2O)c2ccc(O)c(c2)-c2c(O)cc(O)cc21)NC(=O)[C@H](CCCCN)NC(=O)[C@H](CCCCN)NC(=O)[C@H](CCCCNC(=O)c1ccc(Oc2ccccc2)cc1)NC(=O)c1ccc(Oc2ccccc2)cc1` [Compound 24, POB2K-KK-K(Vancomycin)-NHMe], for which, in series [1] (ATCC 43300), the “MIC S. aureus ATCC 43300 MRSA, NBS” value is at most 0.016 µg/mL; the “MIC S. aureus ATCC 43300 MRSA, PP” value turned out to be 1 µg/mL (≈ 0.422 µM); the “MIC S. aureus ATCC 43300 MRSA, PS” value is 2 µg/mL (≈ 0.845 µM); the “MIC S. aureus ATCC 43300 MRSA, PS+P-80” value is at most 0.016 µg/mL. For the same compound, the “MIC VRSA” value in series [2] (S. aureus NARSA VRS4) is 0.08 µg/mL (≈ 0.0338 µM). Further, the “MIC MDR S.P.” value in series [3] (ATCC 700677) is under 0.003 µg/mL. For the same compound, in series [4] (Vancomycin-intermediate NRS1), the “MIC VISA” value amounted to 0.125 µg/mL (≈ 0.0528 µM). Besides, the “MIC VRE” value in series [5] (ATCC 51559) worked out at 0.5 µg/mL (≈ 0.211 µM). Besides, in series [6] (ATCC 29213), the “MIC MSSA” value was at most 0.016 µg/mL; the “MIC S. aureus ATCC29213 MSSA, PP” value was determined as 1 µg/mL (≈ 0.422 µM); the “MIC S. aureus ATCC29213 MSSA, PS” value was found to be 2 µg/mL (≈ 0.845 µM); the “MIC S. aureus ATCC29213 MSSA, PS+P-80” value was determined as 0.031 µg/mL (≈ 0.0131 µM). This compound also registered a CC50 at 24 h in series [7] of 140 µM. Besides, the “Membrane permeabilisation (propidium iodide fluorescence)” value in series [8] is listed as “comparable fluorescence intensity to oritavancin”.
As to `CN[C@H](CC(C)C)C(=O)N[C@H]1C(=O)N[C@@H](CC(N)=O)C(=O)N[C@H]2C(=O)N[C@H]3C(=O)N[C@H](C(=O)N[C@H](C(=O)O)c4cc(O)cc(O)c4-c4cc3ccc4O)[C@H](O)c3ccc(c(Cl)c3)Oc3cc2cc(c3O[C@@H]2O[C@H](CO)[C@@H](O)[C@H](O)[C@H]2O[C@H]2C[C@](C)(N)[C@H](O)[C@H](C)O2)Oc2ccc(cc2Cl)[C@H]1O` [Compound 1, Vancomycin], the MIC was 1 µg/mL (≈ 0.69 µM) in series [1] (ATCC43300|MRSA, 24 h, read-out: MIC MRSA, S. aureus ATCC 43300, NBS plates, MHB, 24 h, substance alone); 1 µg/mL (≈ 0.69 µM) in series [1] (ATCC43300|MRSA, read-out: MIC S. aureus ATCC 43300 MRSA, NBS, non-binding surface plate); 2 µg/mL (≈ 1.38 µM) in series [1] (ATCC43300|MRSA, read-out: MIC S. aureus ATCC 43300 MRSA, PP, polypropylene plate); 2 µg/mL (≈ 1.38 µM) in series [1] (ATCC43300|MRSA, read-out: MIC S. aureus ATCC 43300 MRSA, PS+P-80, polystyrene plate with 0.002% polysorbate-80); 2 µg/mL (≈ 1.38 µM) in series [1] (ATCC43300|MRSA, read-out: MIC S. aureus ATCC 43300 MRSA, PS, polystyrene plate, no polysorbate-80); over 64 µg/mL in series [2]. Besides, the MIC was 1 µg/mL (≈ 0.69 µM) in series [3]; 4 µg/mL (≈ 2.76 µM) in series [4]; over 64 µg/mL in series [5]; 1 µg/mL (≈ 0.69 µM) in series [6] (read-out: MIC MSSA); 1 µg/mL (≈ 0.69 µM) in series [6] (read-out: MIC S. aureus ATCC29213 MSSA, NBS); 1 µg/mL (≈ 0.69 µM) in series [6] (read-out: MIC S. aureus ATCC29213 MSSA, PP). The MIC was 2 µg/mL (≈ 1.38 µM) in series [6] (read-out: MIC S. aureus ATCC29213 MSSA, PS) and 1 to 2 µg/mL (≈ 0.69 to 1.38 µM) in series [6] (read-out: MIC S. aureus ATCC29213 MSSA, PS+P-80). Moreover, in series [7] (24 h, MTT, 1% FBS, read-out: Cytotoxicity CC50 HEK293), the CC50 at 24 h is 5900 µM. In addition, in series [8] (16 µg mL^−1, 1 h, MRSA ATCC 43300), the “Membrane permeabilisation (propidium iodide fluorescence)” value was “little to no effect”.
For the compound `CCCCCCCCCC(=O)N[C@@H](Cc1c[nH]c2ccccc12)C(=O)N[C@H](CC(N)=O)C(=O)N[C@@H](CC(=O)O)C(=O)N[C@@H]1C(=O)NCC(=O)N[C@@H](CCCN)C(=O)N[C@@H](CC(=O)O)C(=O)N[C@H](C)C(=O)N[C@@H](CC(=O)O)C(=O)NCC(=O)N[C@H](CO)C(=O)N[C@@H]([C@H](C)CC(=O)O)C(=O)N[C@@H](CC(=O)c2ccccc2N)C(=O)O[C@@H]1C` [Compound 4, Daptomycin], the MIC turned out to be 2 µg/mL (≈ 1.23 µM) in series [1] (ATCC43300 / MRSA, 24 h, read-out: MIC MRSA); 1 µg/mL (≈ 0.617 µM) in series [1] (ATCC43300|MRSA, read-out: MIC S. aureus ATCC 43300 MRSA, NBS); 1 µg/mL (≈ 0.617 µM) in series [1] (ATCC43300|MRSA, read-out: MIC S. aureus ATCC 43300 MRSA, PP); 1 µg/mL (≈ 0.617 µM) in series [1] (ATCC43300|MRSA, read-out: MIC S. aureus ATCC 43300 MRSA, PS); 1 µg/mL (≈ 0.617 µM) in series [1] (ATCC43300|MRSA, read-out: MIC S. aureus ATCC 43300 MRSA, PS+P-80); 3 µg/mL (≈ 1.85 µM) in series [2] (S. aureus NARSA VRS4). The MIC in series [3] was 2 µg/mL (≈ 1.23 µM); in series [4], 12 µg/mL (≈ 7.4 µM); in series [5], 16 µg/mL (≈ 9.87 µM); in series [6] (S. aureus ATCC 29213, read-out: MIC MSSA), 1 µg/mL (≈ 0.617 µM); in series [6] (non-binding surface plate, read-out: MIC S. aureus ATCC29213 MSSA, NBS) it was 0.5 to 1 µg/mL (≈ 0.309 to 0.617 µM); in series [6] (polypropylene plate, read-out: MIC S. aureus ATCC29213 MSSA, PP), 1 µg/mL (≈ 0.617 µM). The MIC is 1 µg/mL (≈ 0.617 µM) in series [6] (polystyrene plate with 0.002% polysorbate-80, read-out: MIC S. aureus ATCC29213 MSSA, PS+P-80) and 1 µg/mL (≈ 0.617 µM) in series [6] (polystyrene plate, no polysorbate-80, read-out: MIC S. aureus ATCC29213 MSSA, PS). Further, the CC50 at 24 h in series [7] was over 500 µM. Besides, the entries for the “Fold higher propidium iodide fluorescence than oritavancin” value in series [8] (listed as Daptomycin) and in series [8] (listed as daptomycin) were 4–6 fold and “approximately 6 fold”, respectively.
